The text below walks through data of US12692237B2, “Continuous method for preparing tricyanoimidazole” (UCHICAGO ARGONNE, LLC, priority 2022, dated 2026).

Data set [1] is described as follows: Solvent screening: solubility of DCI-NH2 slurried in acetonitrile plus various solvents. The conditions noted are these: for Solubility, +100 uL solvent / Solubility, +200 uL water: +100 uL solvent. The class given is physicochemical. The protocol: Samples of DCI-NH2 (40 mg) were slurried in acetonitrile (0.25 ml) plus various solvents (0.05 ml).
Test in data set [2]: as above
The class given is physicochemical. The conditions noted are these: 40 mg in MeCN:water = 0.5:0.2 mL.

Where [3] appears, read: 40 mg in acetonitrile 0.25 ml + NMP 0.05 ml.
Setting [4] is: 40 mg in acetonitrile 0.25 ml + Nitromethane 0.05 ml.
The mark [5] stands for this setting: 40 mg in acetonitrile 0.25 ml + Propylene carbonate 0.05 ml.
[6] abbreviates: 40 mg in acetonitrile 0.25 ml + Sulfolane 0.05 ml.

As for `N#Cc1nc(N)[nH]c1C#N` [DCI-NH2, 2-amino-1H-imidazole-4,5-dicarbonitrile], the Solubility result in data set [1] (40 mg in acetonitrile 0.25 ml + Diglyme 0.05 ml) is listed as “soluble”; in data set [1] (40 mg in acetonitrile 0.25 ml + Dmso 0.05 ml) it was “soluble”; in data set [1] (setting [3]), “partial”; in data set [1] (setting [4]), “No”; in data set [1] (setting [5]) it was “No”; in data set [1] (setting [6]) it was “No”. In data set [2], the Solubility result is on record as “soluble”. Also, the “Solubility, +100 uL solvent” value was “soluble” in data set [1] (setting [3]), “No” in data set [1] (setting [4]), “No” in data set [1] (setting [5]) and “No” in data set [1] (setting [6]). The “Solubility, +200 uL water” value is reported as “No” in data set [1] (setting [4]), “soluble” in data set [1] (setting [5]) and “soluble” in data set [1] (setting [6]).
